Measurements published in ChEMBL document CHEMBL1121908, “Membrane effects of antiinflammatory agents. 1. Interaction of sulindac and its metabolites with phospholipid membrane, a magnetic resonance study” (J Med Chem, 1981).

Experiments:
Format in all cases: subcellular
Liposome [1] = experiment: The compound was evaluated for percent incorporation in DOPC vesicles, when compound to lipid mol ratio is 0.1
Liposome [2] = experiment: The compound was evaluated for percent incorporation in DOPC vesicles, when compound to lipid mol ratio is 2
Liposome [3] = experiment: The compound was evaluated for percent incorporation in DOPC vesicles, when compound to lipid mol ratio is 3.5

| Incorporation (Liposome [1]) [%] | Incorporation (Liposome [2]) [%] | Incorporation (Liposome [3]) [%] | SMILES |
| --- | --- | --- | --- |
| 7 | 5 |  | CC1=C(CC(=O)O)c2cc(F)ccc2/C1=C\c1ccc([S+](C)[O-])cc1 (stereo not given) |
| 74 | 41 | 25 | CSc1ccc(/C=C2/C(C)=C(CC(=O)O)c3cc(F)ccc32)cc1 |
